Test results published in patent US20050069907A1, “Methods for using double-mutant RNA polymerases with reduced discrimination between non-canonical and canonical nucleoside triphosphates” (priority 2002, published 2005).

What was measured:
Format in all cases: biochemical
[1] = 2′-group discrimination of M635 mutants; conditions: wild-type or Y639F T7 RNAP background
Description: Other mutations: It is conceivable that, in the absence of a bound rNTP, a hydrogen bond forms between Y639 and some other active site side chain. The possibility of an interaction between M635 and Y639 was tested since M635 and Y639 are close and M635 approaches the ribose in our models of NTP in T7 RNAP (Huang, et al., submitted for publication). This position is methionine in the T7 RNAP class of RNAPs (McAllister, W.T., 1993), but is either tyrosine or phenylalanine in the homologous DNAPs, and in the DNAP mutants at this site (i.e., positions homologous to position 762 in E. coli DNAP I) that affect dNTP/ddNTP discrimination (Tabor. S., and Richardson, C. C., European patent application, 1994). […] Additional studies will reveal whether these M635 mutations have other effects, such as effects on discrimination at the 3′-position of the sugar, or effects on discrimination with respect to NTPs with other substituents, such as fluorine at the 2′ position of the sugar. Also, studies on similar double mutations at the homologous sites in the homologous class I DNAPs will reveal the effects of such double mutations on discrimination at the 2′- and 3′-positions of the sugar; specifically, these studies will reveal whether class I DNAPs having a phenylalanine at the position homologous to amino acid position 766 in E. coli DNAP I have reduced discrimination for rNTPs if the amino acid is methionine or tyrosine at the position homologous to amino acid position 762 in E. coli DNAP I.

[2] = tested on: poly(dC); test: Apparent miscoding on homopolymeric template poly(dC); conditions: for Relative rate of incorporation of rGTP vs non-complementary rNTPs / Relative rate of incorporation GTP/ATP / Relative rate of incorporation GTP/CTP / Relative rate of incorporation GTP/UTP: poly(dC); for Relative rate of incorporation GTP/ATP / Relative rate of incorporation GTP/CTP / Relative rate of incorporation GTP/UTP: Mg^2+ buffer
Description: (§1) Transcription reactions: Transcription reactions were carried out in 40 mM Tris-Cl pH 8.0, 15 mM MgCl2, and 5 mM DTT or 20 mM Manganese Citrate pH 8.0, 5 mM DTT at 37° C. Template, polymerase, and NTP concentrations were as indicated in the legends to the figures and tables. Relative activity determinations were made by taking 4 μl aliquots of reactions at 5, 10, and 20 minute time points and spotting on to DE81 filter paper. Unincorporated nucleotides were separated from incorporated nucleotides by washing the filter paper with 0.5 M KH2PO4 pH 7.0 and retained radioactive nucleotide was quantitated with a Molecular Dynamics phosphorimager. To evaluate rNTP/dNTP selectivity, reactions were run with 4 rNTPs and pT75 as template and α-P^32 rNTPs or α-P^32 dNTPs were used to label the transcripts. The relative rate of incorporation of an rNTP vs. its cognate dNTP was determined from the relative percentages of labeled rNTP vs. dNTP incorporated into DE81 retainable RNA at 5, 10, and 20 minute time points. Apparent miscoding frequencies were determined similarly, though in this instance the template was a single-stranded homopolymer and the reaction contained the complementary unlabeled rNTP, and complementary α-P^32 rNTP or one of the 3 non-complementary α-P^32 rNTPs. The relative percentages of labeled complementary vs. non-complementary rNTPs incorporated at 5, 10 and 20 minute time points gave an apparent miscoding rate. The rNTP/dNTP selectivity assay was used to test the following T7 RNAP mutants for effects on substrate discrimination: D537S, D537E, S539A, R5S1S, D552S, R627S, K631S, L637A, Y639S, Y639F, Y639A, G640A, F644A, G645A, Q649S, […], H811S, H811A, D812A, D812E, D812S, D812N, D879E+ΔF882+ΔA883, D879E+A881T+ΔA883, D879E+F884+A885, D879E+F882Y, D879E+ΔA883, D879E+F882W, D879E.
An increase in miscoding would be reflected in an increase in the rate of incorporation of the non-complementary NTP into RNA.
Numbers are averages from 2 experiments and reflect the ratio of the percentages of labeled rNTPs incorporated into RNA in reactions in which unlabeled complementary rNTPs were in great excess (0.5 mM) to labeled complementary or non-complementary rNTPs. Templates were at 0.1 mg/ml. Polymerases were at 10^−8 M in Mg^2+ buffer and 10^−7 M in Mn^2+ buffer.
*The upper number refers to results obtained in Mg^2+ buffer, the lower number to results in Mn^2+ buffer. n.d.: G640A, Y639A, Y639S were poorly active in Mn^2+ buffer, or on poly(dT) under all conditions.

[3] = tested on: poly(dI)·poly(dC); test: Relative activity on poly(dI)·poly(dC)
Description: as §1
DNA and RNA synthesis on homopolymeric templates: T7 RNAP will synthesize poly(rG) RNAs on poly(dC) templates (Bonner, et al., 1994; Ikeda and Richardson 1987). The activity of the W.T. and mutant polymerases were measured on poly(dI)-poly(dC) with rGTP, dGTP, dGTP+rGMP (see, Table III).
Numbers give mean and range from 3 experiments. Templates were at 0.2 mg/ml, polymerases at 10^-8 M. Labeling NTPs were α-P^32 rGTP, α-P^32 dGTP, α-P^32 rATP, α-P^32 dATP, as appropriate. rNTPs or rNMPs at 0.5 mM; dNTPs at 1 mM.

[4] = tested on: pT75; test: Activity with NTPs containing different 2′-substituents; parameters: unit not given here
Description: Activity was determined with pT75 as template but with one of the rNTPs replaced with a dNTP or a 2′-modified NTP. The labeling NTP was UTP (in reactions with 2′-modified CTPs or ATPs) or CTP (in reactions with 2′-modified UTPs). Y639F and Y639M represent enzymes with substitutions of the wild-type (W.T.) tyrosine at position 639 by phenyalanine (F) or methionine (M), respectively.

[5] = rGTP, mean and range from 3 experiments

Substance	2′-group discrimination with respect to dNTPs and rNTPs [1]	Activity in Mn^2+ buffer, or on poly(dT) under all conditions [2]	Relative rate of incorporation GTP/ATP [2]	Relative rate of incorporation GTP/CTP [2]	Relative rate of incorporation GTP/UTP [2]	Relative activity on poly(dI)·poly(dC) ([3]; dGTP)	Relative activity on poly(dI)·poly(dC) ([3]; dGTP + rGMP)	Relative activity on poly(dI)·poly(dC) [3, 5]	also measured
M635Y: T7 RNAP M635 mutant	did not affect 2′-group discrimination								
M635F: T7 RNAP M635 mutant	did not affect 2′-group discrimination								
Y639A: poorly active non-conservative tyrosine 639 mutation of T7 RNAP		poorly active	>184	>184	>184	5.3 (4.8-5.5)	25 (17-30)	145 (142-151)	Relative rate of incorporation of rGTP vs non-complementary rNTPs [2]: 184 fold
Y639S: poorly active non-conservative tyrosine 639 mutation of T7 RNAP		poorly active	>50	>50	>50	.6	4.4	48 (47-50)	Relative rate of incorporation of rGTP vs non-complementary rNTPs [2]: 50 fold
G640A: T7 RNAP mutant adjacent to Y639 that does not affect substrate discrimination [reference compound]		poorly active	388	508	>1320	<5	<5	240 (200-270)	
M635A: T7 RNAP M635 mutant	did not affect 2′-group discrimination								
Y639M: T7 RNAP with tyrosine at position 639 substituted by methionine									Activity ([4]; 2′-F-ATP replacing ATP): 9.7 ± .20; Activity ([4]; 2′-F-CTP replacing CTP): 47 ± .70; Activity ([4]; 2′-F-UTP replacing UTP): 23 ± .72; Activity ([4]; 2′-NH2-ATP replacing ATP): .92 ± .035; Activity ([4]; 2′-NH2-CTP replacing CTP): 21 ± .38; Activity ([4]; 2′-NH2-UTP replacing UTP): 3.6 ± .19; Activity ([4]; 2′-dATP replacing ATP): 3.2 ± .11; Activity ([4]; 2′-dCTP replacing CTP): 32 ± 1.1; Activity ([4]; 2′-dUTP replacing UTP): 11 ± .46; Activity ([4]; ATP): 51 ± 1.3; Activity ([4]; CTP): 54 ± 3.9; Activity ([4]; UTP): 50 ± 1.2
